Results taken from paper PMC11505594, “Design, Synthesis, and Anti-Melanogenic Activity of 2-Mercaptomethylbenzo[d]imidazole Derivatives Serving as Tyrosinase Inhibitors: An In Silico, In Vitro, and In Vivo Exploration” (Antioxidants, 2024).
Entries after “also recorded” stand apart in the source; their conditions may differ. Like-named read-outs stand apart in the source and are kept apart here.

Key:
[1] = biological target: T1, mushroom TYR (Agaricus bisporus, UniProt C7FF04); assay: Mushroom TYR activity assay with and without CuSO4; assay type: biochemical; details: 20 μM derivative, L-tyrosine
Description: To determine whether copper(II) ions influence the TYR-inhibitory activity of 2-MMBI derivatives, the effects of these derivatives on mushroom TYR activity were measured with and without CuSO4. Briefly, mushroom TYR aqueous solution (20 μL, 1 unit/μL) was mixed with 2-MMBI derivatives (1, 3, and 8–10) (10 μL, final concentration: 20 μM) and with the substrate solution (170 μL), comprising 17.2 mM phosphate buffer (pH 6.5) and 345 μM L-tyrosine, in the presence or absence of CuSO4 (50 μL, final concentration: 50 μM) in each well of a 96-well plate. […] Each assay was carried out independently in triplicate.

[2] = biological target: T1, mushroom TYR; assay: Kinetic studies on mushroom TYR (Lineweaver–Burk and Dixon plots); assay type: biochemical; details: L-dopa as substrate
Description: Kinetic experiments were performed to obtain Lineweaver–Burk plots for the analysis of mushroom TYR kinetics. Mushroom TYR solution (20 μL, 150 units/mL) was added to each well of a 96-well microplate containing 2-MMBI derivatives (10 μL; 0, 7.5, 15, and 30 μM for 1; 0, 5, 10, and 20 μM for 3 and 8; and 0, 12.5, 25, and 50 μM for 9) and a substrate solution (170 μL) composed of sodium phosphate buffer (17.2 mM; pH 6.5) and L-dopa (various concentrations: 0.5, 1, 2, 4, 8, and 16 mM). […] Lineweaver–Burk plots for each 2-MMBI derivative were obtained by plotting the value of 1/[substrate] against the value of (min/ΔOD475). Lineweaver–Burk plots were transformed into corresponding Dixon plots by plotting the value of (min/ΔOD475) against the value of the 2-MMBI derivative concentration.

[3] = test system: B16F10 cells; assay: Melanin content measurement assay in B16F10 cells; assay type: cell-based, murine; details: α-MSH 1 μM plus IBMX 200 μM, 72 h; for effect on B16F10 cellular melanin production at three concentrations: 2, 5, and 10 μM
Description: A 6-well plate containing 5 × 10^3 B16F10 cells per well was incubated at 37 °C and 5% CO2 for 1 day. […] After 1 h, 1 μM α-MSH and 200 μM IBMX were added to each well, and the plate was subsequently incubated at 37 °C and 5% CO2 for 72 h. The cells were exposed to […] 1N-NaOH solution and cultured at 60 °C for 1 h after washing with PBS. The lysates were transferred to each well of a 96-well plate, and the optical density at 405 nm was recorded using a VersaMax™ reader. […] Each assay was independently performed three times.

[4] = biological target: T2, B16F10 cellular TYR (Mus musculus, UniProt P11344); assay: TYR activity assay in B16F10 cells; assay type: cell-based, murine; details: 2, 5, and 10 μM; α-MSH 1 μM plus IBMX 200 μM; 72 h
T2 construct: The in situ cellular TYR activities of the 2-MMBI derivatives were investigated using B16F10 cells; endogenous in cells; host or cells: B16F10 murine melanoma cells stimulated with alpha-MSH and IBMX
T2 sequence (P11344 19-533): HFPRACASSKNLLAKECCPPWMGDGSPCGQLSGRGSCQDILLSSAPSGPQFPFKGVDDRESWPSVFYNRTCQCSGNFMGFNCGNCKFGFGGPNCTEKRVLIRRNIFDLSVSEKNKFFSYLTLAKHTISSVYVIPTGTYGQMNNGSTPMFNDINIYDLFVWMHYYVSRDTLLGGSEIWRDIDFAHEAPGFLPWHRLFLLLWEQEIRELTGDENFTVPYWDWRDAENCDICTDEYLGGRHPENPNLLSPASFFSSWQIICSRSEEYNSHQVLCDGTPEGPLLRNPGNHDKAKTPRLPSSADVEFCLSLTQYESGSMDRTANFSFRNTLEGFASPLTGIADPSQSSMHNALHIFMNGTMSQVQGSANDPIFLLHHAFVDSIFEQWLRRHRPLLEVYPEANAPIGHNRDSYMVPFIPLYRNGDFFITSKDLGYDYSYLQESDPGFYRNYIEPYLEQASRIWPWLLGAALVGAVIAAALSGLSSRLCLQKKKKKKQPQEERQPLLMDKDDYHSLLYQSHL
Description: A 6-well plate containing 5 × 10^3 B16F10 cells per well was incubated (37 °C and 5% CO2) for 1 day. […] Stimulators (1 μM α-MSH and 200 μM IBMX) were added after 1 h, and the plate was incubated (37 °C and 5% CO2) for 72 h. After washing with PBS, 100 μL lysis buffer consisting of 1% Triton X-100, 1 mM phenylmethylsulfonyl fluoride, and 50 mM sodium phosphate buffer (pH 6.5) in a volume ratio of 1:1:18 was added to each well. Following an incubation period of 30 min at −80 °C, the cell lysates were centrifuged at 12,000× g for 10 min at 4 °C to obtain the supernatants. […] Each assay was independently performed three times.

[5] = test system: zebrafish larvae; assay: Melanogenesis (depigmentation) assay using zebrafish embryos; assay type: in vivo; details: for depigmentation of zebrafish larvae at 0.03 mM / depigmentation of zebrafish larvae at 0.1 mM: compared with kojic acid 20 mM; for pigmentation area of zebrafish larvae (CS analyzer, dorsal and lateral views): derivatives 0.03 and 0.1 mM, kojic acid 20 mM
Description: To assess depigmentation in vivo, wild-type zebrafish (Danio rerio) embryos were acquired free of charge from the Zebrafish Center for Disease Modeling (ZCDM) located at Chungnam National University in Daejeon, Republic of Korea. The zebrafish were raised in tanks maintained at 28 °C in the ZCDM. The tanks were oxygenated, and the tank lights were turned off for 10 h and on for 14 h. The zebrafish embryos used for in vivo depigmentation experiments were obtained through natural mating. The E3 solution for zebrafish embryos was prepared by dissolving 19.9 mg magnesium sulfate, 6.4 mg potassium chloride, 18.3 mg calcium chloride, and 146.1 mg sodium chloride in 500 mL distilled water. E3-MB (methylene blue) solution was prepared by adding MB to the E3 solution to create a 0.001% MB solution. The acquired zebrafish embryos were transferred to a culture dish containing the E3-MB solution. The culture dish was incubated at 28 °C until zebrafish embryos were used. Since zebrafish embryos are sensitive and can be easily killed by the chorion removal process 20 h post-fertilization (20 hpf), the chorion was removed at 24 hpf through treatment with pronase (Sigma-Aldrich, St. Louis, MO, USA). Five dechorionated zebrafish embryos were transferred to each well of 48-well microplates containing 250 μL E3 solution. […] Zebrafish larvae were anesthetized with tricaine at 76 hpf and placed on a 1% methylcellulose block to determine the degree of zebrafish larva depigmentation. Dorsal and lateral images of the zebrafish larvae were acquired using an SMZ745T microscope (Nikon, Tokyo, Japan). The pigmented areas of the dorsal and lateral images were obtained using CS analyzer 3.0 image analysis software (ATTO, Tokyo, Japan). Each assay (n = 7) was independently performed two times.

[6] = Reactive oxygen species removal activity assay (SIN-1, DCFH); details: test samples 40 μM; SIN-1 10 μM
Description: To assess reactive oxygen species (ROS) removal activity, a DCFH solution was prepared by mixing 50 μL DCFH-DA (1.25 mM), 50 μL esterase (0.6 unit/μL), and 4.9 mL phosphate buffer (50 mM) and maintained in the dark for 30 min. The SIN-1 solution (10 μL) was added to each well of a 96-black well that contained the test sample (10 μL; 2-MMBI derivatives 1–10 and Trolox [positive material]) and phosphate buffer (180 μL). 2-MMBI derivatives, Trolox, and SIN-1 were exposed at final concentrations of 40, 40, and 10 μM, respectively. The prepared DCFH solution (50 μL) was added to each well after 10 min. The fluorescence intensity of 2′,7′-dichlorofluorescein in the wells was measured at 535 nm using a microplate reader (Berthold Advances GmbH & Co., Bad Wildbad, Germany) with an excitation wavelength of 485 nm. Each experiment was conducted independently four times.

[7] = biological target: T3, B16F10 cell TYR (Mus musculus, UniProt P11344); assay: In situ B16F10 cellular TYR activity assay (L-dopa staining); assay type: cell-based, murine; details: α-MSH plus IBMX 72 h; for in situ B16F10 cell TYR activity (cell staining), concentration series: 2, 5, and 10 μM
T3 construct: The in situ cellular TYR activities of the 2-MMBI derivatives were investigated using B16F10 cells; endogenous in cells; host or cells: B16F10 murine melanoma cells stimulated with alpha-MSH and IBMX
T3 sequence (P11344 19-533): T2 sequence (P11344 19-533)
Description: B16F10 cells (2 × 10^3/well) were inoculated in each well of a 24-well microplate and cultured for 1 day in an incubator (37 °C and 5% CO2). […] Subsequently, stimulators (α-MSH [1 μM] and IBMX [200 μM]) were added to each well. […] Stained photographs were captured using a camera attached to a microscope (Motic, Hong Kong, China). Each assay was independently performed two times.

[8] = CuSO4 50 μM added externally, read-out: inhibition of mushroom TYR activity with CuSO4
[9] = no CuSO4 added externally, read-out: inhibition of mushroom TYR activity without CuSO4
[10] = 0.03 and 0.1 mM, 48 h exposure from 28 hpf

T1 sequence (C7FF04 2-392): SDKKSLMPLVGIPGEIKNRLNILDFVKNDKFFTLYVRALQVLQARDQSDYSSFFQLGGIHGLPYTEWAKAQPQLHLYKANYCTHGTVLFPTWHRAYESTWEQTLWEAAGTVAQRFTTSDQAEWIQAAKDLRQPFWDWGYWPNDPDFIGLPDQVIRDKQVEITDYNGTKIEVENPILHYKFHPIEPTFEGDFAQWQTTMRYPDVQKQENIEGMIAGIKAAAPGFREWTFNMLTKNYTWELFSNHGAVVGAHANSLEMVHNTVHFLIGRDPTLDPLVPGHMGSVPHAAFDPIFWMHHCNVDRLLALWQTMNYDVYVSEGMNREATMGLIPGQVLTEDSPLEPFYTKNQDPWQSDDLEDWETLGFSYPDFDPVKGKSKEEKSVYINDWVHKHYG

inhibition at 20 µM [1, 8] [%] | inhibition at 20 µM [1, 9] [%] | inhibition mechanism [2] | SMILES | effect on B16F10 cellular melanin production at 10 μM [3] | effect on B16F10 cellular melanin production at three concentrations [3] | effect on B16F10 cellular TYR activity [4] | also measured
54 | 86 to 89 | mixed TYR inhibitors | Cc1cccc2[nH]c(CS)nc12 [Derivative 9, (4-Methyl-1H-benzo[d]imidazol-2-yl)methanethiol] | – | – | – | –
76 | 86 to 89 | competitive TYR inhibitors | SCc1nc2ccccc2[nH]1 [Derivative 1, (1H-Benzo[d]imidazol-2-yl)methanethiol] | relatively low melanin inhibitory effect | – | – | depigmentation of zebrafish larvae at 0.1 mM ([5]; 0.1 mM, 48 h): much more potent inhibition of melanin production in zebrafish larvae than kojic acid; pigmentation area of zebrafish larvae (CS analyzer, dorsal and lateral views) [5]: reduced the pigmentation area more strongly than kojic acid in a concentration-dependent manner

Continued, compound first:

SMILES | inhibition at 20 µM [1, 8] [%] | inhibition at 20 µM [1, 9] [%] | inhibition mechanism [2] | effect on B16F10 cellular melanin production at 10 μM [3] | effect on B16F10 cellular melanin production at three concentrations [3] | effect on B16F10 cellular TYR activity [4] | also measured
COc1ccc2[nH]c(CS)nc2c1 [Derivative 3, (5-Methoxy-1H-benzo[d]imidazol-2-yl)methanethiol] | 34 | 86 to 89 | competitive TYR inhibitors | inhibited melanin production more strongly than kojic acid | significantly decreased the melanin levels increased by the stimulators in a concentration-dependent manner | significantly reduced stimulator-enhanced cellular TYR activity in a dose-dependent manner | depigmentation of zebrafish larvae at 0.03 mM ([5]; 48 h): much stronger depigmentation efficacy than kojic acid; depigmentation of zebrafish larvae at 0.1 mM ([5]; 0.1 mM, 48 h): much more potent inhibition of melanin production in zebrafish larvae than kojic acid; pigmentation area of zebrafish larvae (CS analyzer, dorsal and lateral views) [5]: reduced the pigmentation area more strongly than kojic acid in a concentration-dependent manner
SCc1nc2cc(Cl)ccc2[nH]1 [Derivative 2, (5-Chloro-1H-benzo[d]imidazol-2-yl)methanethiol] | – | – | – | – | – | – | depigmentation of zebrafish larvae at 0.03 mM ([5]; 48 h): much stronger depigmentation efficacy than kojic acid; zebrafish larvae death at 0.1 mM ([5]; 0.1 mM, 48 h exposure from 28 hpf): died; ROS scavenging activity [6]: stronger ROS scavenging efficacy than the other derivatives
N#Cc1ccc2[nH]c(CS)nc2c1 [Derivative 5, 2-(Mercaptomethyl)-1H-benzo[d]imidazole-5-carbonitrile] | – | – | – | – | – | – | depigmentation of zebrafish larvae at 0.03 and 0.1 mM ([5]; 0.03 and 0.1 mM, 48 h): did not exhibit significant depigmentation
FC(F)(F)c1ccc2[nH]c(CS)nc2c1 [Derivative 7, (5-(Trifluoromethyl)-1H-benzo[d]imidazol-2-yl)methanethiol] | – | – | – | inhibited melanin production more strongly than kojic acid; also recorded: strongest melanin inhibitory effect | significantly decreased the melanin levels increased by the stimulators in a concentration-dependent manner; also recorded: potently reduced the stimulator-induced increase in melanin content to the levels observed in the control group | significantly reduced stimulator-enhanced cellular TYR activity in a dose-dependent manner | in situ B16F10 cell TYR activity (cell staining) at 10 μM [7]: inhibited in situ B16F10 cell TYR activity much more potently than kojic acid; in situ B16F10 cell TYR activity (cell staining), concentration series [7]: reduced the increase in cell staining induced by α-MSH and IBMX in a concentration-dependent manner; zebrafish larvae death [5, 10]: all zebrafish larvae died at the tested concentrations; ROS scavenging activity [6]: stronger ROS scavenging efficacy than the other derivatives
Fc1ccc2[nH]c(CS)nc2c1 [Derivative 4, (5-Fluoro-1H-benzo[d]imidazol-2-yl)methanethiol] | – | – | – | – | – | – | zebrafish larvae death [5, 10]: all zebrafish larvae died at the tested concentrations
Cc1cc2nc(CS)[nH]c2cc1C [Derivative 10, (5,6-Dimethyl-1H-benzo[d]imidazol-2-yl)methanethiol] | 1 | 60 | – | inhibited melanin production more strongly than kojic acid | significantly decreased the melanin levels increased by the stimulators in a concentration-dependent manner | significantly reduced stimulator-enhanced cellular TYR activity in a dose-dependent manner | in situ B16F10 cell TYR activity (cell staining) at 10 μM [7]: inhibited in situ B16F10 cell TYR activity much more potently than kojic acid; in situ B16F10 cell TYR activity (cell staining), concentration series [7]: reduced the increase in cell staining induced by α-MSH and IBMX in a concentration-dependent manner
